How the values were obtained:
[1] = test system: BA/F3 (insSVD) cells; assay: Ba/F3-EGFR-insSVD cell survival assay (Cell Titer-Glo); assay type: cell-based
Method in brief: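 CellTiter-Glo luminescence read after 48 h compound exposure at 37° C. Cells: IL-3-independent Ba/F3 lines transduced with EGFR-insSVD or EGFR-insSVD T790M, maintained on 10 ng/ml EGF and seeded at 4000 per well.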

[2] = target: T1, mutEGFR (D770_N771insNPG, T790) (Homo sapiens, UniProt P00533, INS770NPG/T790M); assay: mutEGFR (D770_N771insNPG, T790) kinase assay; assay type: biochemical
T1 construct: exact insNPG construct not described; in-house EGFR proteins were N-terminal GST fusions from baculovirus/insect cells (borders R669-A1210 given only for WT, insSVD, insASV)
Source text: The different EGFR proteins used in the biochemical kinase activity inhibition assays were generated inhouse by expression in insect cells using Baculo Virus system and subsequent purification as described in the following paragraphs.
The cDNAs encoding the various protein sequences from human EGFR human (P00533) were optimized for expression in eukaryotic cells and synthesized by the GeneArt Technology at Life Technologies.

[3] = target: T2, mutEGFR (D770_N771insSVD) (Homo sapiens, UniProt P00533, DUP768-770); assay: Exon20-Mutant-EGFR (D770_N771insSVD) kinase assay (TR-FRET); assay type: biochemical
T2 construct: GST-EGFR #3 (SVD between D770 and N771); made in house; host or cells: Sf9 insect cells (baculovirus)

[4] = Mus musculus, BaF3, 48 h, Table 3a, cell survival, Cell Titer-Glo, with 10 ng/ml EGF, without IL-3
[5] = mutEGFR (D770_N771insSVD) kinase assay IC50, Table 2a, D770_N771insSVD, 2 mM ATP
[6] = Table 3a, cell survival, Cell Titer-Glo, with 10 ng/ml EGF, without IL-3, 48 h
[7] = Mus musculus, BaF3, 48 h, Table 3b, Ba/F3 EGFR-insSVD
[8] = mutEGFR (D770_N771insSVD) kinase assay IC50, Table 2b (from US Priority Patent Application), mutEGFR D770_N771insSVD

T1 sequence (P00533 with tags, fused parts or gaps INS770NPG/T790M limits assumed): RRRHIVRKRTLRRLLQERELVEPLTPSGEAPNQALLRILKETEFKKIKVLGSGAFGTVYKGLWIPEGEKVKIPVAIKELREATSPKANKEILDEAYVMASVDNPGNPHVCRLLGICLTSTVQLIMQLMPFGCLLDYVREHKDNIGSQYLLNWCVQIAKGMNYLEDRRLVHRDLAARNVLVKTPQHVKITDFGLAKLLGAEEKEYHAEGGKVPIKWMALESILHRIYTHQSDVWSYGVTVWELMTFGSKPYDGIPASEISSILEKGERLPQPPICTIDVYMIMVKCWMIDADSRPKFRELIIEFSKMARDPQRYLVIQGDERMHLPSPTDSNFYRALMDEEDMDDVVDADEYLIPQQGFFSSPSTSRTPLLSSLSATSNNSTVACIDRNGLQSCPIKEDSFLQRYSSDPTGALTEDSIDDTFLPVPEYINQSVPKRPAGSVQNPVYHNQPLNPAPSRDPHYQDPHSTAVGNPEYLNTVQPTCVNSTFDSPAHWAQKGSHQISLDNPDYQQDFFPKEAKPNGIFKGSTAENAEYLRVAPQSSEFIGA
T2 sequence (P00533 with tags, fused parts or gaps DUP768-770): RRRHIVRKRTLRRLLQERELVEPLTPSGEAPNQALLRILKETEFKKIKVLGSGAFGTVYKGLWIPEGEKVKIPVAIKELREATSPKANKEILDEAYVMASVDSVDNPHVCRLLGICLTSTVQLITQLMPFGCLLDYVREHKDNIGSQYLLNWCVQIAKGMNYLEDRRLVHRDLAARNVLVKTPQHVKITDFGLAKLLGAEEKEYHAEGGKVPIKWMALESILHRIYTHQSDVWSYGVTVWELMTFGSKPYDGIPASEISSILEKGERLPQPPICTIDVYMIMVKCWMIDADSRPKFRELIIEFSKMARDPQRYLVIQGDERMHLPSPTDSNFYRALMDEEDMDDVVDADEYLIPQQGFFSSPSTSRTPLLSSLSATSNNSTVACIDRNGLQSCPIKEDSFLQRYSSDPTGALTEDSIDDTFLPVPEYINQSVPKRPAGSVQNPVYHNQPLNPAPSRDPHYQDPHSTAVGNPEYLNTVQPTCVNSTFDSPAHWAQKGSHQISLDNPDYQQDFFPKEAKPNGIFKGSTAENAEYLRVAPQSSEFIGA

Row | IC50 ([2]; Table 2a, D770_N771insNPG) | IC50 [3, 5] | IC50 [3, 8] | IC50 ([2]; Table 2b (from US Priority Patent Application), mutEGFR D770_N771insNPG) | SMILES | IC50 [1, 4] | IC50 [1, 6] | IC50 [1, 7]
1 | 3.09 nM | 0.907 nM |  |  | CCN(C)C/C=C/C(=O)N1CCn2nc(-c3ccc(F)cc3)c(-c3ccncc3)c2C1 [Example 71, (2E)-4-[ethyl(methyl)amino]-1-[2-(4-fluorophenyl)-3-(pyridin-4-yl)-6,7-dihydropyrazolo[1,5-a]pyrazin-5(4H)-yl]but-2-en-1-one] | 120 nM |  | 
2 | 1.2 nM | 0.513 nM |  |  | CN(C)C/C=C/C(=O)N1Cc2c(-c3ccncc3)c(-c3ccc(Cl)cc3)nn2C(C)(C)C1 [Example 215, (2E)-1-[2-(4-chlorophenyl)-7,7-dimethyl-3-(pyridin-4-yl)-6,7-dihydropyrazolo[1,5-a]pyrazin-5(4H)-yl]-4-(dimethylamino)but-2-en-1-one] | 41.7 nM |  | 
3 | 7.23 nM | 40.9 nM |  |  | C=CC(=O)N1Cc2c(-c3ccnc4[nH]cc(C)c34)c(-c3ccc(F)cc3)nn2C[C@@H]1C [Example 251, 1-[(6S)-2-(4-fluorophenyl)-6-methyl-3-(3-methyl-1H-pyrrolo[2,3-b]pyridin-4-yl)-6,7-dihydropyrazolo[1,5-a]pyrazin-5(4H)-yl]prop-2-en-1-one] | 24.3 nM |  | 
4 | 403 nM | 213 nM |  |  | C=CC(=O)N1CCn2nc(Nc3ccc(C(F)(F)F)cc3)c(-c3ccnc4[nH]cc(C)c34)c2C1 [Example 94, 1-[3-(3-methyl-1H-pyrrolo[2,3-b]pyridin-4-yl)-2-[4-(trifluoromethyl)anilino]-6,7-dihydropyrazolo[1,5-a]pyrazin-5(4H)-yl]prop-2-en-1-one] | 2760 nM |  | 
5 | 129 nM | 210 nM |  |  | Cc1c[nH]c2nccc(-c3c(-c4cccc5ccoc45)nn4c3CN(C(=O)/C=C/CN(C)C)CC4)c12 [Example 186, (2E)-1-[2-(1-benzofuran-7-yl)-3-(3-methyl-1H-pyrrolo[2,3-b]pyridin-4-yl)-6,7-dihydropyrazolo[1,5-a]pyrazin-5(4H)-yl]-4-(dimethylamino)but-2-en-1-one formic acid (1:1)] | 557 nM |  | 
6 | 1.5 nM | 0.437 nM |  |  | C=CC(=O)N1CCn2nc(-c3ccc(Cl)cc3F)c(-c3ccncc3)c2C1C (racemic) [Example 240, 1-[(RS)-2-(4-chloro-2-fluorophenyl)-4-methyl-3-(pyridin-4-yl)-6,7-dihydropyrazolo[1,5-a]pyrazin-5(4H)-yl]prop-2-en-1-one] | 54 nM |  | 
7 | 1.21 nM | 0.203 nM |  |  | O=C(/C=C/CN1CC(F)C1)N1CCn2nc(-c3ccc(Cl)cc3)c(-c3ccncc3)c2C1 [Example 172, (2E)-1-[2-(4-chlorophenyl)-3-(pyridin-4-yl)-6,7-dihydropyrazolo[1,5-a]pyrazin-5(4H)-yl]-4-(3-fluoroazetidin-1-yl) but-2-en-1-one] | 43.2 nM |  | 
8 | 396 nM | 1620 nM |  |  | C=CC(=O)N1CCn2nc(-c3ccc(F)cc3)c(-c3ccnc4[nH]cc(C)c34)c2C1C (single isomer, unassigned; isomer 1) [Example 262, 1-(2-(4-fluorophenyl)-4-methyl-3-(3-methyl-1H-pyrrolo[2,3-b]pyridin-4-yl)-6,7-dihydropyrazolo[1,5-a]pyrazin-5(4H)-yl) prop-2-en-1-one (isomer 1)] |  | 452 nM | 
9 | 7.03 nM | 23.2 nM |  |  | C=CC(=O)N1CCn2nc(-c3ccc(F)c(C#N)c3)c(-c3ccncc3)c2C1 [Example 119, 2-fluoro-5-[5-(prop-2-enoyl)-3-(pyridin-4-yl)-4,5,6,7-tetrahydropyrazolo[1,5-a]pyrazin-2-yl]benzonitrile] | 153 nM |  | 
10 | 3.53 nM | 0.976 nM |  |  | CO[C@H]1CCN(C/C=C/C(=O)N2CCn3nc(-c4ccc(F)cc4)c(-c4ccncc4)c3C2)C1 [Example 83, (2E)-1-[2-(4-fluorophenyl)-3-(pyridin-4-yl)-6,7-dihydropyrazolo[1,5-a]pyrazin-5(4H)-yl]-4-[(3S)-3-methoxypyrrolidin-1-yl]but-2-en-1-one] | 132 nM |  | 
11 | 0.656 nM | 0.395 nM |  |  | C=CC(=O)N1CCn2nc(-c3ccc4cc[nH]c4c3)c(-c3ccncc3)c2C1C (racemic) [Example 243, 1-[(RS)-2-(1H-indol-6-yl)-4-methyl-3-(pyridin-4-yl)-6,7-dihydropyrazolo[1,5-a]pyrazin-5(4H)-yl]prop-2-en-1-one] | 97.8 nM |  | 
12 | 7960 nM | 2030 nM |  |  | C=CC(=O)N1CCn2nc(Nc3ccc(OC)c(F)c3)c(-c3ccncc3)c2C1 [Example 96, 1-[2-(3-fluoro-4-methoxyanilino)-3-(pyridin-4-yl)-6,7-dihydropyrazolo[1,5-a]pyrazin-5(4H)-yl]prop-2-en-1-one] | 7930 nM |  | 
13 | 13300 nM | 683 nM |  |  | C=CC(=O)N1CCn2nc(-c3ccc(C(F)(F)F)cc3)c(-c3ccnc4[nH]cc(C)c34)c2C1C (single isomer, unassigned; isomer 1) [Example 259, 1-(4-methyl-3-(3-methyl-1H-pyrrolo[2,3-b]pyridin-4-yl)-2-(4-(trifluoromethyl)phenyl)-6,7-dihydropyrazolo[1,5-a]pyrazin-5(4H)-yl) prop-2-en-1-one (isomer 1)] | 296 nM |  | 
14 | 0.949 nM | 0.22 nM |  |  | C=CC(=O)N1CCn2nc(-c3ccc(Cl)cc3Cl)c(-c3ccncc3)c2C1 [Example 115, 1-[2-(2,4-dichlorophenyl)-3-(pyridin-4-yl)-6,7-dihydropyrazolo[1,5-a]pyrazin-5(4H)-yl]prop-2-en-1-one] | 42.2 nM |  | 
15 | 2.8 nM | 0.989 nM |  |  | C=CC(=O)N1CCn2nc(-c3ccc(C(F)(F)F)cc3)c(-c3ccncc3)c2C1 [Example 44, 1-[3-(pyridin-4-yl)-2-[4-(trifluoromethyl)phenyl]-6,7-dihydropyrazolo[1,5-a]pyrazin-5(4H)-yl]prop-2-en-1-one] | 39 nM |  | 
16 | 3.34 nM | 5.12 nM | 5.12 nM |  | C=CC(=O)N1CCn2nc(-c3ccc(F)cc3)c(-c3ccnc4[nH]ccc34)c2C1 [Example 22, 1-[2-(4-fluorophenyl)-3-(1H-pyrrolo[2,3-b]pyridin-4-yl)-6,7-dihydropyrazolo[1,5-a]pyrazin-5(4H)-yl]prop-2-en-1-one] | 62 nM |  | 62 nM
17 | 0.282 nM | 0.117 nM |  |  | C=CC(=O)N1Cc2c(-c3ccncc3)c(-c3ccc(Cl)cc3F)nn2C(C)C1 (single isomer, unassigned; isomer 1) [Example 282, 1-[2-(4-chloro-2-fluorophenyl)-7-methyl-3-(pyridin-4-yl)-6,7-dihydropyrazolo[1,5-a]pyrazin-5(4H)-yl]prop-2-en-1-one (isomer 1)] | 6.15 nM |  | 
18 | 446 nM | 940 nM |  |  | Cc1c[nH]c2nccc(-c3c(-c4ccc(F)cc4)nn4c3C(C)N(C(=O)/C=C/CN(C)C)CC4)c12 (single isomer, unassigned; isomer 1) [Example 268, (E)-4-(dimethylamino)-1-(2-(4-fluorophenyl)-4-methyl-3-(3-methyl-1H-pyrrolo[2,3-b]pyridin-4-yl)-6,7-dihydropyrazolo[1,5-a]pyrazin-5(4H)-yl) but-2-en-1-one (isomer 1)] |  | 279 nM | 
19 | 0.803 nM | 0.369 nM |  |  | C=CC(=O)N1Cc2c(-c3ccncc3)c(-c3ccc(Cl)cc3)nn2C[C@@H]1C [Example 122, 1-[(6S)-2-(4-chlorophenyl)-6-methyl-3-(pyridin-4-yl)-6,7-dihydropyrazolo[1,5-a]pyrazin-5(4H)-yl]prop-2-en-1-one] | 13.8 nM |  | 
20 | 1.47 nM | 1.45 nM | 1.45 nM | 1.47 nM | C=CC(=O)N1CCn2nc(-c3cccc(F)c3)c(-c3ccncc3)c2C1 [Example 4, 1-[2-(3-fluorophenyl)-3-(pyridin-4-yl)-6,7-dihydropyrazolo[1,5-a]pyrazin-5(4H)-yl]prop-2-en-1-one] | 50.5 nM |  | 50.5 nM
21 | 698 nM | 268 nM |  |  | C=C(CN1CCOCC1)C(=O)N1CCn2nc(-c3ccc(F)cc3)c(-c3ccncc3)c2C1 [Example 64, 1-[2-(4-fluorophenyl)-3-(pyridin-4-yl)-6,7-dihydropyrazolo[1,5-a]pyrazin-5(4H)-yl]-2-[(morpholin-4-yl)methyl]prop-2-en-1-one] | 5050 nM |  | 
22 | 13 nM | 3.76 nM |  |  | CN(C)C/C=C/C(=O)N1Cc2c(-c3ccncc3)c(-c3ccc(F)cc3)nn2C(CC(=O)N(C)C)C1 (racemic) [Example 222, 2-[(7RS)-5-[(2E)-4-(dimethylamino)but-2-enoyl]-2-(4-fluorophenyl)-3-(pyridin-4-yl)-4,5,6,7-tetrahydropyrazolo[1,5-a]pyrazin-7-yl]-N,N-dimethylacetamide] | 658 nM |  | 

— patent publication US20260365653A1, “IRREVERSIBLE MUTEGFR INHIBITORS” (Bayer Aktiengesellschaft, priority 2022, published 2026)
